Experimental data as given in US20260226060A1, “SALTS AND CRYSTALLINE FORMS OF COMPOUND A, METHODS OF PREPARATION, AND USES THEREOF” (SHENZHEN NEWDEL BIOTECH CO., LTD., priority 2023, published 2026).

Legend:
Format in all cases: physicochemical
[1] = Dynamic vapor sorption (DVS) hygroscopicity
Method: The water vapor sorption/desorption data of the samples were collected on a dynamic vapor sorption instrument (proUmid GmbH & Co. KG, Germany). Approximately 50-70 mg of sample was placed in a sample pan previously tared and the weight of the sample was measured accurately.

[2] = IC analysis of residual solid of phosphate crystalline form I (PO4 content, dissociation)
Method: IC analysis of the salts was performed by using a Thermo ICS-6000 instrument.

[3] = Solubility analysis in biological solvents (SGF, FaSSIF, FeSSIF) and water, with pH and XRPD of residual solid; details: for Solubility: 37° C.
Method: (§1) HPLC analysis was performed by using an Agilent HPLC 1260 series instrument and the HPLC methods used for solubility and stability determinations were shown in Tables 33 and 34, respectively.

[4] = Solid state stability at 60° C. (closed) and 40° C./75% RH (open), XRPD and HPLC purity
Method: (closed) and 40° C./75 RH (open) for 14 days, XRPD analysis and purity analysis were performed at various points of time, and solid-state stability was evaluated.
as §1

[5] = Short-term physical stability of anhydrous crystal forms (40° C./75% RH, open, 1 day; XRPD)
Excerpt: In addition to the mesylate crystalline form I, the other anhydrous crystalline forms were stable under high humidity conditions.

Cc1c(C#Cc2cnc3ccc(N4CCC(O)CC4)nn23)cccc1C(=O)Nc1cc(Cl)cc(C(F)(F)F)c1 [Phosphate crystalline form I]
crystalline form after DVS analysis (XRPD) [1]: remained unchanged | hygroscopicity (DVS) [1]: slightly hygroscopic | DVS The weight gains by vapor sorption % ([1]; 80% RH): 1.3% | DVS The weight gains by vapor sorption % ([1]; 90% RH): 1.6% | DVS The weight gains by vapor sorption % ([1]; 90% RH, listed as phosphate crystalline form I): ~1.6% | dissociation of salt in solubility media (IC of residual solids) ([2]; FaSSIF and FeSSIF): dissociated to free base | Dissociation degree ([2]; FaSSIF, 0.5 h): 91% | PO4^3− in residual solid ([2]; FaSSIF, 0.5 h): 0.1 eq. | XPRD Results Dry sample of residual solid ([2]; FaSSIF, 0.5 h): Amorphous | XPRD Results Wet sample of residual solid ([2]; FaSSIF, 0.5 h): Form 1 | Dissociation degree ([2]; FaSSIF, 2 h): 97% | PO4^3− in residual solid ([2]; FaSSIF, 2 h): 0.03 eq. | XPRD Results Dry sample of residual solid ([2]; FaSSIF, 2 h): Amorphous | XPRD Results Wet sample of residual solid ([2]; FaSSIF, 2 h): Form 1 | Dissociation degree ([2]; FaSSIF, 24 h): >99% | PO4^3− in residual solid ([2]; FaSSIF, 24 h): <0.006 eq. | XPRD Results Dry sample of residual solid ([2]; FaSSIF, 24 h): Form 3 | XPRD Results Wet sample of residual solid ([2]; FaSSIF, 24 h): Form 2 | Dissociation degree ([2]; FeSSIF, 0.5 h): >99% | PO4^3− in residual solid ([2]; FeSSIF, 0.5 h): <0.006 eq. | XPRD Results Dry sample of residual solid ([2]; FeSSIF, 0.5 h): Amorphous | XPRD Results Wet sample of residual solid ([2]; FeSSIF, 0.5 h): Form 1 | Dissociation degree ([2]; FeSSIF, 24 h): 100% | PO4^3− in residual solid ([2]; FeSSIF, 24 h): 0 eq. | XPRD Results Dry sample of residual solid ([2]; FeSSIF, 24 h): Amorphous | XPRD Results Wet sample of residual solid ([2]; FeSSIF, 24 h): Form 1 | pH in solubility analysis ([3]; FaSSIF (medium pH 6.5), 0.5 h): 5.7 | pH in solubility analysis ([3]; FaSSIF (medium pH 6.5), 2 h): 5.5 | pH in solubility analysis ([3]; FaSSIF (medium pH 6.5), 24 h): 5.5 | solubility at 24 h ([3]; FaSSIF, 37 °C, pH 6.5, fassif, thermodynamic from solid, 24 h, target 5 mg/mL): 22 µg/mL | XRPD of residual solid in solubility analysis ([3]; FaSSIF, 0.5 h): Form 1 | Solubility ([3]; FaSSIF, 0.5 h, target 5 mg/mL): 0.057 mg/mL | Solubility ([3]; FaSSIF, 0.5 h, target 5 mg/mL, listed as phosphate crystalline form I): 0.057 mg/mL | XRPD of residual solid in solubility analysis ([3]; FaSSIF, 0.5 h, listed as phosphate crystalline form I): Newform 1 | Solubility ([3]; FaSSIF, 2 h, target 5 mg/mL): 0.048 mg/mL | Solubility ([3]; FaSSIF, 2 h, target 5 mg/mL, listed as phosphate crystalline form I): 0.048 mg/mL | XRPD of residual solid in solubility analysis ([3]; FaSSIF, 24 h): Form 2 | XRPD of residual solid in solubility analysis ([3]; FaSSIF, 24 h, listed as phosphate crystalline form I): new form 2 | pH in solubility analysis ([3]; FeSSIF (medium pH 5.0), 0.5 h): 4.9 | pH in solubility analysis ([3]; FeSSIF (medium pH 5.0), 2 h): 4.9 | pH in solubility analysis ([3]; FeSSIF (medium pH 5.0), 24 h): 5.0 | XRPD of residual solid in solubility analysis ([3]; FeSSIF, 0.5 h): Form 1 | Solubility ([3]; FeSSIF, 0.5 h, target 5 mg/mL): 1.029 mg/mL | Solubility ([3]; FeSSIF, 0.5 h, target 5 mg/mL, listed as phosphate crystalline form I): 1.029 mg/mL | XRPD of residual solid in solubility analysis ([3]; FeSSIF, 0.5 h, listed as phosphate crystalline form I): Newform 1 | Solubility ([3]; FeSSIF, 2 h, target 5 mg/mL): 1.175 mg/mL | Solubility ([3]; FeSSIF, 2 h, target 5 mg/mL, listed as phosphate crystalline form I): 1.175 mg/mL | XRPD of residual solid in solubility analysis ([3]; FeSSIF, 24 h): Form 1 | Solubility ([3]; FeSSIF, 24 h, target 5 mg/mL): 1.948 mg/mL | Solubility ([3]; FeSSIF, 24 h, target 5 mg/mL, listed as phosphate crystalline form I): 1.948 mg/mL | pH in solubility analysis ([3]; SGF (medium pH 1.2), 0.5 h): 1.2 | pH in solubility analysis ([3]; SGF (medium pH 1.2), 2 h): 1.4 | pH in solubility analysis ([3]; SGF (medium pH 1.2), 24 h): 1.2 | Solubility ([3]; SGF, 0.5 h, target 5 mg/mL): <LOD | Solubility ([3]; SGF, 0.5 h, target 5 mg/mL, listed as phosphate crystalline form I): <LOD/<LOD/ | Solubility ([3]; SGF, 2 h, target 5 mg/mL): <LOD | Solubility ([3]; SGF, 2 h, target 5 mg/mL, listed as phosphate crystalline form I): <LOD/<LOD/ | XRPD of residual solid in solubility analysis ([3]; SGF, 24 h): amorphous | Solubility ([3]; SGF, 24 h, target 5 mg/mL): <LOD | XRPD of residual solid in solubility analysis ([3]; SGF, after 2 h): amorphous | pH in solubility analysis ([3]; water (medium pH 6.6), 0.5 h): 2.8 | pH in solubility analysis ([3]; water (medium pH 6.6), 2 h): 2.7 | pH in solubility analysis ([3]; water (medium pH 6.6), 24 h): 2.6 | Solubility ([3]; water, 0.5 h, target 5 mg/mL): <LOD | Solubility ([3]; water, 0.5 h, target 5 mg/mL, listed as phosphate crystalline form I): <LOD/<LOD/ | Solubility ([3]; water, 2 h, target 5 mg/mL): <LOD | Solubility ([3]; water, 2 h, target 5 mg/mL, listed as phosphate crystalline form I): <LOD/<LOD/ | Solubility ([3]; water, 24 h, target 5 mg/mL): <LOD | XRPD pattern of the residual solid in water ([3]; water, time not stated): an additional peak at 160 (20) | Purity in stability evaluation ([4]; 0 d): 98.78 Area % | Solid state stability-14 days ([4]; 60° C./Closed and 40° C./75% RH (Open), 14 days): physically and chemically stable | Purity in stability evaluation ([4]; 7 d-40° C./75% RH): 98.78 Area % | XRPD in stability evaluation ([4]; 7 d-40° C./75% RH): unchanged | Purity in stability evaluation ([4]; 7 d-60° C./capped): 98.78 Area % | XRPD in stability evaluation ([4]; 7 d-60° C./capped): unchanged | Purity in stability evaluation ([4]; 14 d-40° C./75% RH): 98.78 Area % | XRPD in stability evaluation ([4]; 14 d-40° C./75% RH): unchanged | Purity in stability evaluation ([4]; 14 d-60° C./capped): 98.78 Area % | XRPD in stability evaluation ([4]; 14 d-60° C./capped): unchanged | XPRD Results after short-term physical stability [5]: unchanged
